Like-named read-outs stand apart in the source and are kept apart here. Non-standard residues stand in square brackets, D forms with d. No end group written: not given here. Phe(4-NH2) = Nc1ccc(C[C@H](N)C(=O)O)cc1
Legend:
[1] = system: intimal hyperplasia after balloon injury; details: cited from earlier work
wound tissue = details: applied to wound tissue; cited from earlier work
[2] = system: full thickness dermal wounds; test: rat model for dermal repair (full thickness dermal wounds); type: in vivo; details: 100 μg/d for 5 days
Description: Female Sprague Dawley rats, 175-200 g, were obtained from Simonsen Laboratories, Gilroy, Calif. On the day of surgery, the rats received intramuscular ketamine/rompum anesthesia prior to preparation for surgery. The rats were shaved and scrubbed with betadine. Two 1.5×1.5 cm full thickness dermal wounds were created on the dorsal surface of the rat. Following excision of the skin, the size of the wound was outlined on a glass slide and the medicament was administered in 100 μl 10% low viscosity carboxymethyl cellulose (Sigma). The test materials were administered in a randomized fashion; all materials were tested at 100 μg/wound. Controls were treated with vehicle only. After administration of the materials, the rats were bandaged and allowed to recover from anesthesia. On days 1-4 after surgery, the rats were treated with an additional 100 μg of peptide formulation. At days 2, 4 ,7 and 9, the area of the skin wounds were measured under methoxyflurane anesthesia (commercially available as Metofane from Pittman-Moore, Mundelein, Ill.). The area of the wound was determined by (1) tracing the wound shape onto graph paper (1×1 mm squares); (2) cutting out the shape; (3) weighing the paper and comparing the weight with a 1.5×1.5 cm paper cutout; and (4) counting the number of squares. In addition, on days 2, 4 and 7, the area of granulation tissue was similarly determined.
As illustrated in FIGS. 1-2, wound closure and the formation of granulation tissue was substantially accelerated relative to the control animals when the test animals were treated with an AT2 agonist. FIG. 1 illustrates the percent of control response in wound closure relative to a vehicle-treated control; FIG. 2 illustrates the percent increase in formation of granulation tissue relative to a vehicle control.

AT2 receptor [3] = details: experimental models tested (rabbit vas deferens; NG-108-15); cited from earlier work
AT2 receptor [4] = details: higher affinity for AT2 than AT1; cited from earlier work
[5] = rat dermal wounds, relative to vehicle-treated control

Cc1cc(Cn2cnc3c2C[C@@H](C(=O)O)N(C(=O)C(c2ccccc2)c2ccccc2)C3)ccc1N(C)C [PD 123319]
reduction of intimal hyperplasia ([1]; rats, after balloon injury): 73%

CCCCc1nc(Cl)c(CO)n1Cc1ccc(-c2ccccc2-c2nn[nH]n2)cc1 [losartan]
neointimal formation ([1]; other studies, higher doses): effective
decrease of intimal area ([1]; rats, after balloon injury): 95%
neointimal formation ([1]; similar model, low doses): ineffective

Asp-Arg-Val-Tyr-Ile-His-Pro-Phe (DRVYIHPF) [angiotensin II, octapeptide present in humans and other species; known pressor agent]
rate of wound healing (wound tissue): significantly increases

Asp-Arg-Val-Tyr-Ile-Xaa-Pro-Phe [SEQ ID NO:2] wherein Xaa is p-NH2-Phe (DRVYI[Phe(4-NH2)]PF) [p-aminophenylalanine6-AII]
granulation tissue formation [2, 5]: accelerated
wound closure [2, 5]: accelerated
results in dermal repair compared with AII ([2]; rat): comparable to AII
binding characteristics (AT2 receptor [3]): comparable to the AT2 antagonists
affinity for AT2 relative to AT1 (AT2 receptor [4]): 1000 ×

CGP 42112
neointimal formation ([1]; similar model, infused perivascularly for 14 days): prevented neointimal formation

Source: patent US6444646B1, “Use of angiotensin II type 2 receptor agonists in tissue repair” (University of Southern California, priority 1995, dated 2002)
